We go through 20 compounds from PubChem BioAssay AID264 (DTP/NCI, 2004).

In the assay the test system is nude mice, LX-1 lung xenograft intrarenal, tumor weight T/C. In words: NCI In Vivo Anticancer Drug Screen. Data for tumor model Human Lung LX-1 Xenograft (intrarenal inoculation) in NU/NU Swiss (nude) mice. To be noted: endpoint: mean tumor weight change, higher = larger tumour. As for the experimental part:
The antitumor activity of compounds was measured in mice bearing transplantable tumors. Survival or tumor size were measured and the results are expressed as the measurement made in the treated group (T) divided by the measurement made in the vehicle treated control group (C). The tumor model used in this assay is Human Lung LX-1 Xenograft (intrarenal inoculation) in NU/NU Swiss (nude) mice

[1] abbreviates: dose: 12.5 mg/kg/injection, schedule: Q04DX003 (sc), vehicle: saline.
[2] abbreviates: dose: 25.0 mg/kg/injection, schedule: Q04DX003 (sc), vehicle: saline.
[3] abbreviates: dose: 50.0 mg/kg/injection, schedule: Q04DX003 (sc), vehicle: saline.
[4] abbreviates: dose: 300.0 mg/kg/injection, schedule: Q04DX003 (sc), vehicle: Klucel (hydroxypropylcellulose) (HPC).
The mark [5] stands for this setting: dose: 600.0 mg/kg/injection, schedule: Q04DX003 (sc), vehicle: Klucel (hydroxypropylcellulose) (HPC).
[6] abbreviates: dose: 1200.0 mg/kg/injection, schedule: Q04DX003 (sc), vehicle: Klucel (hydroxypropylcellulose) (HPC).
Where [7] appears, read: dose: 2400.0 mg/kg/injection, schedule: Q04DX003 (sc), vehicle: Klucel (hydroxypropylcellulose) (HPC).
The mark [8] stands for this setting: dose: 300.0 mg/kg/injection, schedule: Q04DX003 (sc), vehicle: saline with Tween-80.
Where [9] appears, read: dose: 600.0 mg/kg/injection, schedule: Q04DX003 (sc), vehicle: saline with Tween-80.
[10] abbreviates: dose: 1200.0 mg/kg/injection, schedule: Q04DX003 (sc), vehicle: saline with Tween-80.
Setting [11] is: dose: 2400.0 mg/kg/injection, schedule: Q04DX003 (sc), vehicle: saline with Tween-80.
Setting [12] is: dose: 100.0 mg/kg/injection, schedule: Q01DX010 (sc), vehicle: saline.
[13] abbreviates: dose: 200.0 mg/kg/injection, schedule: Q01DX010 (sc), vehicle: saline.
The mark [14] stands for this setting: dose: 50.0 mg/kg/injection, schedule: Q04DX003 (sc), vehicle: Klucel (hydroxypropylcellulose) (HPC).
Setting [15] is: dose: 100.0 mg/kg/injection, schedule: Q04DX003 (sc), vehicle: saline with Tween-80.

Values joined by “and” are separate entries in the source; they are usually repeats but may differ in a detail not shown here. Identical values can stand only once. Results filed as inconclusive are left out.

Turning to `ClCC[Se](Cl)(Cl)c1ccccc1`, the T/C runs as follows: under setting [1], 92 % of control; under setting [2], 70 % of control; under setting [3], 46 % of control.
Regarding `CC[C@@]1(O)C[C@H](OC2CC(N(C)C)C(OC3CC(O)C(OC4CCC(=O)C(C)O4)C(C)O3)C(C)O2)c2c(cc3c(c2O)C(=O)c2c(O)cccc2C3=O)[C@H]1C(=O)OC` (some centres not stated), the T/C was 105 % of control (dose: 0.5 mg/kg/injection, schedule: Q01DX010 (sc), vehicle: water); 69 % of control (dose: 1.0 mg/kg/injection, schedule: Q01DX010 (sc), vehicle: water); 24 % of control (dose: 1.66 mg/kg/injection, schedule: Q04DX003 (ip), vehicle: water); 83 % of control (dose: 2.0 mg/kg/injection, schedule: Q01DX010 (sc), vehicle: water); 22 % of control (dose: 3.33 mg/kg/injection, schedule: Q04DX003 (ip), vehicle: water).
In the case of `Cc1ccc(NCC2(/N=C/c3ccccc3)OC(CO)C(O)C2O)cc1` (configuration not stated), the T/C under setting [4] was 122 % of control, the T/C under setting [5] was 98 % of control, the T/C under setting [6] is 80 % of control and the T/C under setting [7] was 98 % of control.
As for `Cc1ccc(NC(=O)Oc2ccc(Br)cc2Br)c([N+](=O)[O-])c1`, the T/C runs as follows: under setting [8], 61 % of control; under setting [9], 98 % of control; under setting [10], 93 % of control; under setting [11], 68 % of control.
As to `COc1cccc2c1C(=O)c1c(O)c3c(c(O)c1C2=O)C[C@@](O)(C(C)=O)C[C@@H]3OC1CC(N)C(O)C(C)O1` (some centres not stated), the T/C was 45 % of control (dose: 0.5 mg/kg/injection, schedule: Q01DX010 (sc), vehicle: saline); 12 % of control (dose: 1.0 mg/kg/injection, schedule: Q01DX010 (sc), vehicle: saline); 19 % of control (dose: 2.0 mg/kg/injection, schedule: Q01DX010 (sc), vehicle: saline); 21 % of control (dose: 4.0 mg/kg/injection, schedule: Q01DX010 (sc), vehicle: saline).
For `C[N+](C)(C)c1ncnc2nc[nH]c12`, the T/C (dose: 50.0 mg/kg/injection, schedule: Q01DX010 (sc), vehicle: saline) was 78 % of control; the T/C under setting [12] is 116 % of control; the T/C under setting [13] was 58 % of control.
For the compound `C/C=C/c1cc2n(c1)C(=O)c1cc(OC3OC(C)C(NC)C(C)(O)C3O)c(C)c(O)c1NC2O` (configuration not stated), the T/C is, setting by setting: (dose: 50.0 micrograms/kg/injection, schedule: Q04DX003 (sc), vehicle: saline) 54 % of control; (dose: 200.0 micrograms/kg/injection, schedule: Q04DX003 (sc), vehicle: saline) 92 % of control; (dose: 400.0 micrograms/kg/injection, schedule: Q04DX003 (sc), vehicle: saline) 91 % of control.
Regarding `O=C(O)C1Cc2nc[nH]c2CN1CO` (configuration not stated), the T/C is 74 % of control under setting [8], 85 % of control under setting [9], 41 % of control under setting [10] and 87 % of control under setting [11].
Regarding `Nc1nc2c(ncn2C2OC(CO)C(O)C2O)c(=O)[nH]1` (configuration not stated), the T/C is, setting by setting: under setting [8], 50 % of control; under setting [9], 54 % of control; under setting [10], 42 % of control; under setting [11], 46 % of control.
In the case of `OCCN1CCN(CC/C=C2/c3ccccc3Sc3ccc(Cl)cc32)CC1`, the T/C runs as follows: (dose: 6.25 mg/kg/injection, schedule: Q04DX003 (sc), vehicle: saline) 78 % of control; under setting [1], 68 % of control; under setting [2], 52 % of control; under setting [3], 43 % of control.
For `CNC(=O)OCc1c(COC(=O)NC)c(C)n(-c2ccc(OC)cc2)c1C`, the T/C reads like this: (dose: 25.0 mg/kg/injection, schedule: Q01DX010 (sc), vehicle: Klucel (hydroxypropylcellulose) (HPC)) 51 % of control; (dose: 50.0 mg/kg/injection, schedule: Q01DX010 (sc), vehicle: Klucel (hydroxypropylcellulose) (HPC)) 59 % of control and 63 % of control; under setting [14], 38 % of control; (dose: 800.0 mg/kg/injection, schedule: Q04DX003 (sc), vehicle: Klucel (hydroxypropylcellulose) (HPC)) 87 % of control.
With `C=CC(C)(C)n1cc(C2=C(O)C(=O)C(c3cn(C(C)(C)C=C)c4ccccc34)=C(O)C2=O)c2ccccc21`, the T/C under setting [14] was 63 % of control; the T/C (dose: 100.0 mg/kg/injection, schedule: Q04DX003 (sc), vehicle: Klucel (hydroxypropylcellulose) (HPC)) was 71 % of control; the T/C (dose: 200.0 mg/kg/injection, schedule: Q04DX003 (sc), vehicle: Klucel (hydroxypropylcellulose) (HPC)) was 124 % of control; the T/C (dose: 400.0 mg/kg/injection, schedule: Q04DX003 (sc), vehicle: Klucel (hydroxypropylcellulose) (HPC)) is 83 % of control.
On to `O=C(NC1CCCCC1)OCc1c(COC(=O)NC2CCCCC2)c(-c2ccc(Cl)c(Cl)c2)n2c1CCC2`, for which the T/C reads like this: under setting [8], 88 % of control; under setting [9], 94 % of control; under setting [10], 104 % of control; under setting [11], 104 % of control.
Consider `CC(C)[C@](O)(C(=O)OCC1=CCN2CC[C@@H](O)[C@@H]12)[C@H](C)O`, for which the T/C is, setting by setting: (dose: 150.0 mg/kg/injection, schedule: Q04DX003 (sc), vehicle: water) 80 % of control; (dose: 300.0 mg/kg/injection, schedule: Q04DX003 (sc), vehicle: water) 91 % of control; (dose: 600.0 mg/kg/injection, schedule: Q04DX003 (sc), vehicle: water) 82 % of control; (dose: 1200.0 mg/kg/injection, schedule: Q04DX003 (sc), vehicle: water) 70 % of control.
Turning to `CCCCCCCCCCCCSC1=C(Cl)C(=O)C(OC)=C(OC)C1=O`, the T/C was 71 % of control (dose: 75.0 mg/kg/injection, schedule: Q04DX003 (sc), vehicle: saline with Tween-80) and 81 % of control (dose: 150.0 mg/kg/injection, schedule: Q04DX003 (sc), vehicle: saline with Tween-80).
In the case of `CSc1ccc2c(c1)C(N1CCN(C)CC1)Cc1ccccc1S2` (configuration not stated), the T/C is 152 % of control (dose: 25.0 mg/kg/injection, schedule: Q04DX003 (sc), vehicle: saline with Tween-80); 88 % of control (dose: 50.0 mg/kg/injection, schedule: Q04DX003 (sc), vehicle: saline with Tween-80); 171 % of control under setting [15].
Consider `C=CCOCC1CO1` (configuration not stated), for which the T/C was 87 % of control under setting [12]; 104 % of control under setting [13]; 69 % of control (dose: 400.0 mg/kg/injection, schedule: Q01DX010 (sc), vehicle: saline).
For the compound `Nc1nc(-c2cccc3ccccc23)cc2ccccc12`, the T/C under setting [15] was 107 % of control; the T/C (dose: 200.0 mg/kg/injection, schedule: Q04DX003 (sc), vehicle: saline with Tween-80) was 91 % of control; the T/C (dose: 400.0 mg/kg/injection, schedule: Q04DX003 (sc), vehicle: saline with Tween-80) is 94 % of control; the T/C (dose: 800.0 mg/kg/injection, schedule: Q04DX003 (sc), vehicle: saline with Tween-80) was 53 % of control.
Regarding `N#CCCN(C(=S)Nc1cccc(C(F)(F)F)c1)C1CCCCC1`, the T/C is, setting by setting: under setting [4], 60 % of control; under setting [5], 55 % of control; under setting [6], 77 % of control; under setting [7], 80 % of control.
Consider `COc1cc2c(c(OC)c1OC)-c1ccc(OC)c(=O)cc1[C@@H](N)CC2`, for which the T/C by setting is: (dose: 0.31 mg/kg/injection, schedule: Q01DX010 (sc), vehicle: Klucel (hydroxypropylcellulose) (HPC)) 104 % of control; (dose: 0.63 mg/kg/injection, schedule: Q01DX010 (sc), vehicle: Klucel (hydroxypropylcellulose) (HPC)) 74 % of control; (dose: 1.25 mg/kg/injection, schedule: Q01DX010 (sc), vehicle: Klucel (hydroxypropylcellulose) (HPC)) 76 % of control; (dose: 1.57 mg/kg/injection, schedule: Q01DX010 (sc), vehicle: Klucel (hydroxypropylcellulose) (HPC)) 79 % of control; (dose: 2.5 mg/kg/injection, schedule: Q01DX010 (sc), vehicle: Klucel (hydroxypropylcellulose) (HPC)) 50 % of control; (dose: 3.13 mg/kg/injection, schedule: Q01DX010 (sc), vehicle: Klucel (hydroxypropylcellulose) (HPC)) 61 % of control. Further, where the note is “dose: 6.25 mg/kg/injection, schedule: Q01DX010 (sc), vehicle: Klucel (hydroxypropylcellulose) (HPC)”, the T/C was 66 % of control.
